Tests used:
Format in all cases: cell-based
[1] = tested on: four cancer cell lines (A-549, MCF-7, Panc-1, HT-29); test: Antiproliferative assay, average over four cancer cell lines; settings: Homo sapiens; average of the four cancer cell lines; read-out: Average IC50 (GI50)
Text: Table 2 presents the four cancer cell lines’ median inhibitory concentration (IC50) and GI50 (average IC50) values.
The IC50 values were derived from dose-response tests. The reported data are derived from at least two independent studies, each comprising three replicates per concentration. See Supplementary Material A1 for more details.

[2] = tested on: NCI-H322M; test: NCI-60 single-dose screen; settings: Homo sapiens, single dose 10 µM, '-' = no inhibition, read-out: % Growth Inhibition
Outline: (§1)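 NCI DTP single-dose screen; 10 μM compound; 60-line panel, nine cancer types.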

[3] = tested on: NCI-H522; test: NCI-60 single-dose screen; settings: Homo sapiens, single dose 10 µM, '-' = no inhibition, read-out: % Growth Inhibition
Outline: as §1

[4] = tested on: SR; test: NCI-60 single-dose screen; settings: Homo sapiens, single dose 10 µM, '-' = no inhibition, read-out: % Growth Inhibition
Outline: as §1

[5] = tested on: DU-145; test: NCI-60 single-dose screen; settings: Homo sapiens, single dose 10 µM, '-' = no inhibition, read-out: % Growth Inhibition
Outline: as §1

[6] = tested on: BT-549; test: NCI-60 single-dose screen; settings: Homo sapiens, single dose 10 µM, '-' = no inhibition, read-out: % Growth Inhibition
Outline: as §1

[7] = tested on: A549/ATCC; test: NCI-60 single-dose screen; settings: Homo sapiens, single dose 10 µM, '-' = no inhibition, read-out: % Growth Inhibition
Outline: as §1

[8] = tested on: OVCAR-8; test: NCI-60 single-dose screen; settings: Homo sapiens, single dose 10 µM, '-' = no inhibition, read-out: % Growth Inhibition
Outline: as §1

[9] = tested on: UACC-62; test: NCI-60 single-dose screen; settings: Homo sapiens, single dose 10 µM, '-' = no inhibition, read-out: % Growth Inhibition
Outline: as §1

[10] = tested on: MDA-MB231/ATCC; test: NCI-60 single-dose screen; settings: Homo sapiens, MDA-MB-231, single dose 10 µM, '-' = no inhibition, read-out: % Growth Inhibition
Outline: as §1

[11] = tested on: K-562; test: NCI-60 single-dose screen; settings: Homo sapiens, K562, single dose 10 µM, '-' = no inhibition, read-out: % Growth Inhibition
Outline: as §1

[12] = tested on: NCI-H23; test: NCI-60 single-dose screen; settings: Homo sapiens, single dose 10 µM, '-' = no inhibition, read-out: % Growth Inhibition
Outline: as §1

[13] = tested on: SK-MEL-5; test: NCI-60 single-dose screen; settings: Homo sapiens, single dose 10 µM, '-' = no inhibition, read-out: % Growth Inhibition
Outline: as §1

[14] = tested on: SNB-19; test: NCI-60 single-dose screen; settings: Homo sapiens, single dose 10 µM, '-' = no inhibition, read-out: % Growth Inhibition
Outline: as §1

[15] = tested on: OVCAR-3; test: NCI-60 single-dose screen; settings: Homo sapiens, single dose 10 µM, '-' = no inhibition, read-out: % Growth Inhibition
Outline: as §1

[16] = tested on: SF-268; test: NCI-60 single-dose screen; settings: Homo sapiens, single dose 10 µM, '-' = no inhibition, read-out: % Growth Inhibition
Outline: as §1

[17] = tested on: SN12C; test: NCI-60 single-dose screen; settings: Homo sapiens, single dose 10 µM, '-' = no inhibition, read-out: % Growth Inhibition
Outline: as §1

[18] = tested on: HOP-92; test: NCI-60 single-dose screen; settings: Homo sapiens, single dose 10 µM, '-' = no inhibition, read-out: % Growth Inhibition
Outline: as §1

[19] = tested on: OVCAR-4; test: NCI-60 single-dose screen; settings: Homo sapiens, single dose 10 µM, '-' = no inhibition, read-out: % Growth Inhibition
Outline: as §1

[20] = tested on: SK-MEL-28; test: NCI-60 single-dose screen; settings: Homo sapiens, single dose 10 µM, '-' = no inhibition, read-out: % Growth Inhibition
Outline: as §1

[21] = tested on: HCC-2998; test: NCI-60 single-dose screen; settings: Homo sapiens, single dose 10 µM, '-' = no inhibition, read-out: % Growth Inhibition
Outline: as §1

[22] = tested on: ACHN 1; test: NCI-60 single-dose screen; settings: Homo sapiens, single dose 10 µM, '-' = no inhibition, read-out: % Growth Inhibition
Outline: as §1

[23] = tested on: CAKI-1; test: NCI-60 single-dose screen; settings: Homo sapiens, single dose 10 µM, '-' = no inhibition, read-out: % Growth Inhibition
Outline: as §1

[24] = tested on: NCI/ADR-RES; test: NCI-60 single-dose screen; settings: Homo sapiens, single dose 10 µM, '-' = no inhibition, read-out: % Growth Inhibition
Outline: as §1

[25] = tested on: RPMI-8226; test: NCI-60 single-dose screen; settings: Homo sapiens, single dose 10 µM, '-' = no inhibition, read-out: % Growth Inhibition
Outline: as §1

[26] = tested on: RXF 393; test: NCI-60 single-dose screen; settings: Homo sapiens, single dose 10 µM, '-' = no inhibition, read-out: % Growth Inhibition
Outline: as §1

[27] = tested on: UO-31; test: NCI-60 single-dose screen; settings: Homo sapiens, single dose 10 µM, '-' = no inhibition, read-out: % Growth Inhibition
Outline: as §1

[28] = tested on: PC-3; test: NCI-60 single-dose screen; settings: Homo sapiens, single dose 10 µM, '-' = no inhibition, read-out: % Growth Inhibition
Outline: as §1

[29] = tested on: MDA-MB-468; test: NCI-60 single-dose screen; settings: Homo sapiens, single dose 10 µM, '-' = no inhibition, read-out: % Growth Inhibition
Outline: as §1

[30] = tested on: HCT-116; test: NCI-60 single-dose screen; settings: Homo sapiens, single dose 10 µM, '-' = no inhibition, read-out: % Growth Inhibition
Outline: as §1

[31] = tested on: OVCAR-5; test: NCI-60 single-dose screen; settings: Homo sapiens, single dose 10 µM, '-' = no inhibition, read-out: % Growth Inhibition
Outline: as §1

[32] = tested on: U251; test: NCI-60 single-dose screen; settings: Homo sapiens, U-251, single dose 10 µM, '-' = no inhibition, read-out: % Growth Inhibition
Outline: as §1

[33] = tested on: SF-539; test: NCI-60 single-dose screen; settings: Homo sapiens, single dose 10 µM, '-' = no inhibition, read-out: % Growth Inhibition
Outline: as §1

[34] = tested on: HS 578T; test: NCI-60 single-dose screen; settings: Homo sapiens, single dose 10 µM, '-' = no inhibition, read-out: % Growth Inhibition
Outline: as §1

[35] = tested on: TK-10; test: NCI-60 single-dose screen; settings: Homo sapiens, single dose 10 µM, '-' = no inhibition, read-out: % Growth Inhibition
Outline: as §1

[36] = tested on: SK-OV-3; test: NCI-60 single-dose screen; settings: Homo sapiens, single dose 10 µM, '-' = no inhibition, read-out: % Growth Inhibition
Outline: as §1

[37] = tested on: HL-60(TB); test: NCI-60 single-dose screen; settings: Homo sapiens, single dose 10 µM, '-' = no inhibition, read-out: % Growth Inhibition
[38] = tested on: IGROV1; test: NCI-60 single-dose screen; settings: Homo sapiens, IGROV-1, single dose 10 µM, '-' = no inhibition, read-out: % Growth Inhibition
Outline: as §1

[39] = tested on: NCI-H460; test: NCI-60 single-dose screen; settings: Homo sapiens, single dose 10 µM, '-' = no inhibition, read-out: % Growth Inhibition
Outline: as §1

[40] = tested on: UACC-257; test: NCI-60 single-dose screen; settings: Homo sapiens, single dose 10 µM, '-' = no inhibition, read-out: % Growth Inhibition
Outline: as §1

[41] = tested on: 786-0; test: NCI-60 single-dose screen; settings: Homo sapiens, single dose 10 µM, '-' = no inhibition, read-out: % Growth Inhibition
Outline: as §1

[42] = tested on: SK-MEL-2; test: NCI-60 single-dose screen; settings: Homo sapiens, single dose 10 µM, '-' = no inhibition, read-out: % Growth Inhibition
Outline: as §1

[43] = tested on: COLO 205; test: NCI-60 single-dose screen; settings: Homo sapiens, single dose 10 µM, '-' = no inhibition, read-out: % Growth Inhibition
Outline: as §1

[44] = tested on: HT29; test: NCI-60 single-dose screen; settings: Homo sapiens, HT-29, single dose 10 µM, '-' = no inhibition, read-out: % Growth Inhibition
Outline: as §1

COc1ccc(-c2cc(-c3ccc(Cl)cc3)nc(SCc3ccccc3)n2)cc1OC [Compound 28, 2-(Benzylthio)-4-(4-chlorophenyl)-6-(3,4-dimethoxyphenyl)pyrimidine]
IC50 [1]: 41 nM | inhibition at 10 µM [2]: < 0% | inhibition at 10 µM [3]: 31.8% | inhibition at 10 µM [4]: 39.4% | inhibition at 10 µM [5]: 8.2% | inhibition at 10 µM [6]: 3.64% | inhibition at 10 µM [7]: 18.9% | inhibition at 10 µM [8]: 8.97% | inhibition at 10 µM [9]: < 0% | inhibition at 10 µM [10]: 23% | inhibition at 10 µM [11]: 30.9% | inhibition at 10 µM [12]: 2.2% | inhibition at 10 µM [13]: 30.1% | inhibition at 10 µM [14]: 4.06% | inhibition at 10 µM [15]: < 0% | inhibition at 10 µM [16]: 10.8% | inhibition at 10 µM [17]: 23.1% | inhibition at 10 µM [18]: 0.63% | inhibition at 10 µM [19]: 21.5% | inhibition at 10 µM [20]: 4.01% | inhibition at 10 µM [21]: < 0% | inhibition at 10 µM [22]: 13.1% | inhibition at 10 µM [23]: 25.7% | inhibition at 10 µM [24]: 14.3% | inhibition at 10 µM [25]: 24.3% | inhibition at 10 µM [26]: < 0% | inhibition at 10 µM [27]: 24.8% | inhibition at 10 µM [28]: 19% | inhibition at 10 µM [29]: 6.53% | inhibition at 10 µM [30]: 25.9% | inhibition at 10 µM [31]: 6.33% | inhibition at 10 µM [32]: 13.1% | inhibition at 10 µM [33]: 17.8% | inhibition at 10 µM [34]: 18.2% | inhibition at 10 µM [35]: < 0% | inhibition at 10 µM [36]: 2.92% | inhibition at 10 µM [37]: 21.4% | inhibition at 10 µM [38]: < 0% | inhibition at 10 µM [39]: 14.8% | inhibition at 10 µM [40]: 15.3% | inhibition at 10 µM [41]: 7.96% | inhibition at 10 µM [42]: 12% | inhibition at 10 µM [43]: 3.49% | inhibition at 10 µM [44]: 18.7%

COc1ccc(CSc2nc(-c3ccc(Cl)cc3)cc(-c3ccc(OC)c(OC)c3)n2)cc1 [Compound 29, 2-(4-Methoxybenzylthio)-4-(4-chlorophenyl)-6-(3,4-dimethoxyphenyl)pyrimidine]
IC50 [1]: 24 nM | inhibition at 10 µM [2]: 17.4% | inhibition at 10 µM [3]: 23.1% | inhibition at 10 µM [4]: 45.8% | inhibition at 10 µM [5]: 28.6% | inhibition at 10 µM [6]: 21.4% | inhibition at 10 µM [7]: 30.1% | inhibition at 10 µM [8]: 19.4% | inhibition at 10 µM [9]: 38.7% | inhibition at 10 µM [10]: 30.3% | inhibition at 10 µM [11]: 54.5% | inhibition at 10 µM [12]: 14.6% | inhibition at 10 µM [13]: 22.6% | inhibition at 10 µM [14]: 14.2% | inhibition at 10 µM [15]: < 0% | inhibition at 10 µM [16]: 33% | inhibition at 10 µM [17]: 35.6% | inhibition at 10 µM [18]: 20.6% | inhibition at 10 µM [19]: 21.9% | inhibition at 10 µM [20]: 11.3% | inhibition at 10 µM [21]: < 0% | inhibition at 10 µM [22]: 13.2% | inhibition at 10 µM [23]: 23.1% | inhibition at 10 µM [24]: 32.1% | inhibition at 10 µM [25]: 36.9% | inhibition at 10 µM [26]: 24.2% | inhibition at 10 µM [27]: 33.1% | inhibition at 10 µM [28]: 36.4% | inhibition at 10 µM [29]: 40.2% | inhibition at 10 µM [30]: 30.2% | inhibition at 10 µM [31]: 7.38% | inhibition at 10 µM [32]: 23.3% | inhibition at 10 µM [33]: 14.7% | inhibition at 10 µM [34]: 37.5% | inhibition at 10 µM [35]: < 0% | inhibition at 10 µM [36]: 13.9% | inhibition at 10 µM [37]: 38.8% | inhibition at 10 µM [38]: 6.14% | inhibition at 10 µM [39]: 21.2% | inhibition at 10 µM [40]: 0.85% | inhibition at 10 µM [41]: 11.6% | inhibition at 10 µM [42]: 13.7% | inhibition at 10 µM [43]: 11.3% | inhibition at 10 µM [44]: 38%
